How the values were obtained:
[1] = system: vaginal biofilm (Gardnerella vaginalis, Atopobium vaginae); conditions: cited from earlier work
[2] = system: Gardnerella vaginalis biofilms; assay: Crystal violet staining of biofilm mass, forming (t0) and well developed, still growing (t20m) biofilms; assay type: cell-based, Gardnerella vaginalis (strain ATCC 14018); conditions: for inhibition of biofilm formation / reduction of cell mass (in words): well developed and still growing biofilms (t20m)
Method: (§1) The inhibitory effect of amphoteric surfactants on the formation of Gardnerella vaginalis biofilms were tested in biofilms, grown in 96 well tissue culture test plates. Before starting the biofilm experiments, MIC (minimal inhibitory concentration) values for sodium cocoamphoacetate for planktonic growing Gardnerella vaginalis cultures were determined MIC values for sodium cocoamphoacetate against Gardnerella vaginalis had not been reported so far.
(§2) Gardnerella vaginalis (strain ATCC 14018) were grown on Columbia agar plates supplemented with 5% sheep blood, liquid cultures were grown in brain heart infusion broth supplemented with 2% (w/v) gelatine, 0.5% yeast extract, 0.1% starch and 1% D-(+)-glucose at 37° C. and with the addition of 5% CO2.
(§3) For a preculture, bacteria were inoculated from plate or glycerol stock and grew overnight. This preculture was used for starting a new culture. Here the cultivation was performed in microtiter plates in a final volume of […] For testing substances in a forming biofilm (t0), substances were added at this time point. After 20 hours of cultivation, measurements determining the mass of biofilm cells and the biofilm viability were started.
For testing substances in a well developed and further growing biofilm (t20m), medium was gently removed after 20 hours of cultivation and compounds were added in fresh medium for enabling further growth. Incubation was performed for another 20 hours.
At 20 hours (t0) respectively 40 hours of cultivation (t20m) measurements were started, concerning the biofilm formation and viability.
(§4) Crystal violet (CV) staining was used to determine the mass of biofilm cells. For this purpose biofilms grown in 96 well tissue test plates were washed with buffer (PBS, pH of 7.4), dried and stained under shaking with 2% crystal violet in ethanol. After washing with buffer, drying and over night extraction with ethanol, the absorbance (OD620) was measured in a plate reader and the percentage of biomass inhibition was calculated.

[3] = system: Gardnerella vaginalis biofilms; assay: Live/Dead BacLight viability staining, forming (t0) and well developed, still growing (t20m) biofilms; assay type: cell-based, Gardnerella vaginalis (strain ATCC 14018); conditions: for inhibition of cell viability (in words): well developed and still growing biofilms (t20m)
Method: as §1, §2
as §3, with “started. […]” for “started.”
The viability was determined using the Live/Dead BacLight bacterial viability staining. […] In contrast, propidium iodide penetrates only bacteria with damaged membranes, causing a reduction in the SYTO 9 stain fluorescence when both dyes are present. […] After 15 min of incubation in the dark fluorescence was measured in a microtiter plate reader equipped with detectors and filter sets for monitoring red (630 nm) and green (530 nm) fluorescence. Afterwards the percentage of the reduction of viability was calculated.
The tested substances namely cocoamidopropyl hydroxysultaine, disodium cocamphodiacetate, sodium cocoamphopropionate and sodium lauroamphoacetate were dissolved in fresh media and added to a mature G. vaginalis biofilm (t20m, see Example 1). After another 20 hrs of incubation, the biofilm viability was determined via Live/Dead staining, as described above.

[4] = system: Gardnerella vaginalis biofilms in the stationary phase; assay: Biomass of biofilms in the stationary phase (compounds added in PBS to 20 hours old biofilms); assay type: cell-based; conditions: 1 mg/ml to 50 mg/ml
Method: as §4, with “calculated. To determine how different concentrations of sodium cocoamphoacetate damage well formed biofilms in the stationary phase, compounds were added in PBS buffer to 20 hours old biofilms and analyzed after further 20 hours of incubation by determining their biomass and viability.” for “calculated.”

In the case of `Cc1ncc([N+](=O)[O-])n1CCO` [metronidazole], the “effect on the vaginal biofilm” value ([1]; 500 mg orally twice daily for 7 days, 18 women) is listed as “did not erase the Gardnerella vaginalis biofilm completely” and the “Nugent Score after treatment” value ([1]; after 7 day treatment with oral metronidazole) is listed as “below 7”.
With disodium cocamphodiacetate the “inhibition of biofilm formation / reduction of cell mass (in words)” value [2] was “reduce the cell mass” and the “inhibition of cell viability (in words)” value [3] was “inhibit the viability”.
With sodium cocoamphoacetate the “inhibition of biofilm formation” value ([2]; added at the beginning of biofilm cultivation (t0), concentrations of 0.25 mg/ml and higher) was “completely inhibited”, the “decrease of viability of the bacterial cells” value ([3]; added at the beginning of biofilm cultivation (t0), 0.25 mg/ml to 1 mg/ml) was 90% and the “reduction in biofilm formation” value [4] was 44-65%.
With sodium lauroamphoacetate the “inhibition of biofilm formation / reduction of cell mass (in words)” value [2] was “reduce the cell mass” and the “inhibition of cell viability (in words)” value [3] was “inhibit the viability”.
